Experimental data published in PMC8282797, “Strictly regulated agonist-dependent activation of AMPA-R is the key characteristic of TAK-653 for robust synaptic responses and cognitive improvement” (Scientific Reports, 2021).
Entries after “also recorded” stand apart in the source; their conditions may differ. Like-named read-outs stand apart in the source and are kept apart here.

Tests used:
AMPA-R [1] = system: AMPA-R; set-up: key to Single effect on Ca2+ level: -: No effect or slight effect; +: Potent; ++: Very potent; settings: cited from earlier work; for Intracellular Ca2+ level, Agonistic effect @30 μM: absence of AMPA, % of 5 μM AMPA + 10 μM HBT1 response; for EC50: in the presence of 5 μM AMPA, read-out: Intracellular Ca2+ level, Potentiation EC50; for Single effect on Ca2+ level: summary grade
[2] = system: MK-801-induced working memory deficit in rats; test: Radial arm maze (RAM) test, MK-801-induced working memory deficit; format: in vivo, rat
Method: RAM tests were performed using 9-week-old male Long-Evans rats as previously described with a minor modification. Each arm was 50 cm long, 10 cm wide and 40 cm high, and the maze was elevated 50 cm above the floor. Long-Evans rats were food-restricted to 85% of free-feeding body weight throughout the experimental period. Rats were well trained to collect pellets placed on the edge of each arm. The learning criterion for the testing session was defined as 2 errors or fewer for 2 consecutive days. In the testing session, each rat was placed on the maze facing the fixed arm at the start of the trial. The entry of rats into each arm was recorded in sequence until all pellets in the 8 arms were consumed, or 5 min had elapsed. […] Thirty min after dosing of vehicle or MK-801, rats were placed on the maze. Details are described in the Supplementary Information.
The experiment was performed using 9-week-old male Long-Evans rats as described previously (Zajaczkowski et al., 1996) with a minor modification. Each arm was 50 cm long, 10 cm wide and 40 cm high, and the maze was elevated 50 cm above the floor. After being fasted for 24 h, male Long-Evans rats were food-restricted to 85% of free-feeding body weight on the first day of exposure to the maze and throughout the experimental period. The experiment consists of two sessions, training and testing session. In the training session, rats were habituated to the maze and then trained. Reinforcement consisted of 3 food pellets (45 mg each) in the food cup was used. On the first day of habituation to the maze, reinforcements were placed near the entrance and at the mid-point of each arm. Three rats were placed on the maze at one time and allowed to explore and consume the pellets for 8 min. On the second day of habituation, each rat was placed on the maze and allowed 5 min to consume the pellets placed at the mid-point and in the food cup at the end of each arm. From the third day, reinforcement was placed in the food cup at the end of each arm. Rats were well trained to collect pellets placed on the edge of each arm. The learning criterion for the testing session was defined as 2 errors or less for two consecutive days. In the previous day of the testing session, baseline level of performance was qualified to confirm that rats completed collecting all pellets placed in the 8 arms with two errors or less. In the testing session, each rat was placed on the maze facing away from the experimenter and facing the fixed arm at the start of the trial. The entry of rats into each arm was recorded in sequence. Rats were allowed to explore until all pellets in the 8 arms were consumed, or 5 min had elapsed. Entry into an arm previously chosen was counted as an error. […] […] Thirty min after dosing of vehicle or MK-801, rats were placed on the maze. Data were indicated as the mean ± SEM in the testing session.

rats [3] = system: rats; set-up: method as in PMID 30209408; settings: 10 and 30 mg/kg, p.o.; cited from earlier work
rats [4] = settings: cited from earlier work
AMPA-R [5] = test: Whole-cell patch clamp recording in acute PFC slices (AMPA-R-mediated EPSPs); format: cell-based, rat; set-up: key to Synaptic EPSP response: -: No effect or slight effect; +: Potent; ++: Very potent; settings: for Synaptic EPSP response: summary grade
Method: Coronal PFC slices were prepared from male Sprague–Dawley rats (10- to 14-day-old). The slices including layer V PFC pyramidal neurons were perfused at a flow rate of 1–2 ml/min with recording aCSF containing the following: 124 mM NaCl, 5 mM KCl, 1.2 mM NaH2PO4, 1.5 mM MgCl2, 2.5 mM CaCl2, 10 mM glucose, 24 mM NaHCO3 bubbled with carbogen (95% O2; 5% CO2). Current clamp recordings at holding potential of approximately − 65 mV with constant current were carried out at 32–33 °C using a pipette filled with an intracellular solution consisting of: 140 mM K-gluconate, 4 mM KCl, 10 mM HEPES, 0.2 mM EGTA, 4 mM MgATP, 0.3 mM Na2GTP, pH 7.3 with KOH in the presence of bicuculline (20 μM), CGP52422 (10 μM), and APV (50 μM) to block GABAA and B and NMDA receptors, respectively. Methods are described in the Supplementary Information.
Coronal prefrontal cortex (PFC) slices were prepared from male Sprague-Dawley rats (10- to 14-day-old). Animals were sacrificed following acute decapitation, and their brain was quickly removed and placed in an ice-cold modified artificial cerebrospinal fluid (aCSF) of the following composition: 92 mM N-methyl-D-glucamine (NMDG), 2.5 mM KCl, 1.25 mM NaH2PO4, 30 mM NaHCO3, 20 mM HEPES, 25 mM glucose, 2 mM thiourea, 5 mM Na-ascorbate, 3 mM Na-pyruvate, 0.5 mM CaCl2, and 10 mM MgSO4. The pH of the solution was titrated to 7.3-7.4 with concentrated HCl. Coronal slices were cut at a thickness of 300 μm with using a linear slicer PRO7 (Dosaka EM, Kyoto, Japan). Slices were initially recovered for ≤ 15 min at 34°C and then transferred to a holding chamber containing HEPES holding aCSF (92 mM NaCl, 2.5 mM KCl, 1.25 mM NaH2PO4, 30 mM NaHCO3, 20 mM HEPES, 25 mM glucose, 2 mM thiourea, 5 mM Na-ascorbate, 3 mM Na-pyruvate, 2 mM CaCl2 and 2 mM MgSO4) at room temperature for at least 1 h before starting the recording. The slices were then transferred to the recording chamber mounted on a FN1 microscope (Nikon, Tokyo, Japan), in which they were submerged and perfused at a flow rate of 1-2 ml/min with recording aCSF containing the following: 124 mM NaCl, 5 mM KCl, 1.2 mM NaH2PO4, 1.5 mM MgCl2, 2.5 mM CaCl2, 10 mM glucose, 24 mM NaHCO3. All aCSF solutions were continuously bubbled with carbogen (95% O2; 5% CO2). Differential interference contrast (DIC) microscopy (C10639, Hamamatsu, Japan) was used to visualize pyramidal neurons in the PFC. Patch pipettes (5-6 MΩ) were prepared from borosilicate capillary glass using a micropipette puller PC-10 (NARISHIGE, Tokyo, Japan). Current clamp recordings were carried out at 32-33°C using a pipette filled with intracellular solution consisting of: 140 mM K-gluconate, 4 mM KCl, 10 mM HEPES, 0.2 mM EGTA, 4 mM MgATP, 0.3 mM Na2GTP, pH 7.3 with KOH in the presence of bicuculline (20 μM), CGP52422 (10 μM), and APV (50 μM) to block GABAA and B and NMDA receptors, respectively. Signals were recorded using a Multiclamp 700B amplifier (Molecular Devices, LLC, Orleans Drive Sunnyvale, CA), digitized using a Digidata 1440A interface board, filtered between 2 kHz, sampled at 10 kHz, and analyzed with pClamp10 software. Layer V PFC pyramidal neurons were recorded at holding potential of approximately –65 mV with constant current. A hyperpolarizing step (–20 pA) prior to each stimulation was used to monitor any changes in access resistance. Postsynaptic potentials were evoked by constant current single stimulation pulses (100 μs, 10-100 μA) delivered with a 20-s interstimulus interval using monopolar stimulating electrodes positioned in layer I.

naïve rats = settings: cited from earlier work; for NORT (effective doses): summary
AMPA-R [6] = system: AMPA-R; set-up: key to Single effect on AMPA-R currents: -: No effect or slight effect; +: Potent; ++: Very potent; settings: cited from earlier work; for AMPA-R currents, Agonistic effect @30 μM: absence of AMPA, % of AMPA (100 μM)-induced steady-state response; for EC50: in the presence of 1 μM AMPA, read-out: AMPA-R currents, Potentiation EC50; for Single effect on AMPA-R currents: summary grade
GluA2o LBD = GluA2o LBD (Homo sapiens, UniProt P42262); set-up: method as in earlier work; settings: read-out: IC50, binding affinity to the GluA2o LBD by SPA using [3H]-HBT1; cited from earlier work
[7] = set-up: method as in earlier work; settings: cited from earlier work
[8] = system: MK-801-induced working memory deficit in rats; set-up: method as in earlier work; settings: summary, fasted conditions; cited from earlier work

GluA2o LBD, sequence (P42262 with tags, fused parts or gaps): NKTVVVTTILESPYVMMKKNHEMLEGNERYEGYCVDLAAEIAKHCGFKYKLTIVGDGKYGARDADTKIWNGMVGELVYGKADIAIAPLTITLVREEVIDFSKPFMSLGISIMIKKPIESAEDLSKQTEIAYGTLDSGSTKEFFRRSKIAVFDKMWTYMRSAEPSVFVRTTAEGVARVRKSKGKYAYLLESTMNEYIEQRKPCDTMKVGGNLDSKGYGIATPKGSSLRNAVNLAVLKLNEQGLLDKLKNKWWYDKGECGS

Row | SMILES | Intracellular Ca2+ level, Agonistic effect @30 μM (AMPA-R [1]) [%] | EC50 (AMPA-R [1]) [nM] | Single effect on Ca2+ level (AMPA-R [1]) | Margin based on AUCplasma (rats [4]) [fold] | Margin based on plasma Cmax (rats [4]) [fold] | Synaptic EPSP response (AMPA-R [5]) | NORT (effective doses) (naïve rats) | AMPA-R currents, Agonistic effect @30 μM (AMPA-R [6]) [%] | EC50 (AMPA-R [6]) [nM] | Single effect on AMPA-R currents (AMPA-R [6]) | IC50 (GluA2o LBD) [nM] | other results
1 | CC(C)S(=O)(=O)NC[C@H](C)c1ccc(-c2ccc(C#N)cc2)cc1 [LY451646] | 88 | 780 | ++ | 4.0 | 3.4 | + | Effective (1, 3) | 39 | 1900 | + | 390 | Working memory in the RAM test ([2]; 0.03 to 1 mg/kg, p.o., MK-801 0.08 mg/kg, s.c.): neither LY451646 at 0.03 to 1 mg/kg, p.o. nor AMPA at 0.1 to 3 mg/kg, i.p. improve; RAM (effective doses) ([2]; summary): No effect; Seizure (rats [3]): induced seizure; Membrane potentials of recorded neurons (AMPA-R [5]): did not increase; Suprathreshold response (AMPA-R [5]; 30 μM for 10 min): enhanced the suprathreshold response; Suprathreshold polysynaptic EPSPs (number of spikes, EPSP duration) (AMPA-R [5]; 0.3 to 30 μM): moderate potentiation; Dose improving visual learning and memory in NOR test (naïve rats; p.o., rats): ≥ 1 mg/kg
2 | O=S1(=O)CCN2C=CC=C(c3ccc(Oc4ccccc4)cc3)C2=N1 [TAK-137, 9-(4-phenoxyphenyl)-3,4-dihydropyrido[2,1-c][1,2,4]thiadiazine 2,2-dioxide] | 7.6 | 420 | ─ | 122 | 42 | ++ | Effective (0.1, 1) | 6.4 | 1400 | ─ | 65 | Brain concentration under fasted conditions, relative to fed conditions [7]: 71%; Plasma concentration under fasted conditions, relative to fed conditions [7]: 67%; Polysynaptic EPSP duration and evoked spikes (AMPA-R [5]; 3 μM, 10 min): potently enhanced; also recorded: robustly enhanced; RAM (effective doses) [8]: Effective (0.2, 0.6) ^\
